“And” between values parts separate entries of the source, which are not always exact repeats. Equal values may be shown once. Starred links: 1 amine or outer side, 2 acyl side, 3 side chain; linkers in the order of their positions; H or OH if unused. Positions of bridges follow the written chain, without caps; N, C: chain ends. Non-standard residues stand in square brackets, D forms with d. Residues, ends and D or L forms follow the SMILES beside them. *: point of attachment. hTyr(3S-OH,4S-OH,3'-OSO3H) = N[C@H](C(=O)O)[C@H](O)[C@@H](O)c1ccc(O)c(OS(=O)(=O)O)c1; Orn(4R-OH,5R-OH) = O=C([C@H](C[C@@H](O)[C@@H](O)N[*:3])N[*:1])[*:2]; Pro(3S-OH,4S-Me) = C[C@H]1CN[C@H](C(=O)O)[C@H]1O; X1 = CCCCCOc1ccc(-c2cc(-c3ccc(C(=O)*)cc3)no2)cc1; Gln(3R-OH) = NC(=O)C[C@@H](O)[C@H](N)C(=O)O; Hyp = O=C(O)[C@@H]1C[C@@H](O)CN1
What was measured:
mucormycosis = details: nivolumab (anti-PD-1) and IFN-γ together, Belgian bomb blast victim, reference 5; cited from earlier work
[1] = system: Trichosporon asahii and Saksenaea species; assay: Tissue, wound, blood and bone cultures of the fungal wound sepsis patient; type: in vivo, human; details: posaconazole, amphotericin B and micafungin together, before IL-7
Text: They were aggressively treated with daily or alternating-day operative debridement, broad-spectrum parenteral and topical antibacterial and antifungal therapy. Antimicrobial therapy included ceftazidime, metronidazole, trimethoprim-sulfamethoxazole, micafungin, amphotericin B, and posaconazole (FIG. 29), as well as VERAFLO vac instillation of antimicrobials into the wound bed. The patient's polymicrobial soft tissue infection continued to advance and was accompanied by multisystem organ failure and shock. Over a 4-week period, they required debridement of >3000 cm^2 of skin, subcutaneous tissue, and muscle involving the entire perineum, bilateral thighs, buttocks, and circumferential abdominal wall (FIG. 28B).
Tissue histology also became negative for fungus at approximately the same time as tissue cultures (FIG. 28E).

Saksenaea isolate = assay: CLSI broth dilution antifungal susceptibility testing; details: Saksenaea isolate from patient wound, CLSI broth dilution reference method
[2] = system: peripheral blood mononuclear cells (T cell IFN-γ production); type: cell-based, human

Row | Compound | wound cultures for Trichosporon asahii and Saksenaea species despite triple antifungal therapy [1] | Drug sensitivities (Saksenaea isolate) [µg/mL] | also measured
1 | IFN-γ: interferon-γ given as immune-adjuvant therapy |  |  | outcome of immune-adjuvant therapy in refractory mucormycosis (mucormycosis): rapid clinical improvement, enhanced immune phenotypic markers, and fungal elimination
2 | C[C@@H]1[C@H](O)[C@@H](C)/C=C/C=C/C=C/C=C/C=C/C=C/C=C/[C@H](O[C@@H]2O[C@H](C)[C@@H](O)[C@H](N)[C@@H]2O)C[C@@H]2O[C@](O)(C[C@@H](O)C[C@@H](O)[C@H](O)CC[C@@H](O)C[C@@H](O)CC(=O)O[C@H]1C)C[C@H](O)[C@H]2C(=O)O [amphotericin B] | persistently positive | < 0.03 | 
3 | CC[C@@H]([C@H](C)O)n1ncn(-c2ccc(N3CCN(c4ccc(OC[C@@H]5CO[C@@](Cn6cncn6)(c6ccc(F)cc6F)C5)cc4)CC3)cc2)c1=O [posaconazole] | persistently positive | 0.25 | 
4 | C[C@@H](c1nc(-c2ccc(C#N)cc2)cs1)[C@](O)(Cn1cncn1)c1cc(F)ccc1F [isavuconazole] |  | 1 | 
5 | nivolumab [reference compound] |  |  | outcome of immune-adjuvant therapy in refractory mucormycosis (mucormycosis): rapid clinical improvement, enhanced immune phenotypic markers, and fungal elimination
6 | C[C@@H]1C[C@H]2[C@@H]3CCC4=CC(=O)C=C[C@]4(C)[C@@]3(F)[C@@H](O)C[C@]2(C)[C@@]1(O)C(=O)COP(=O)(O)O [dexamethasone, dexamethasone phosphate] |  |  | decrease in IFN-γ production (ELISpot total well intensity) [2]: 61% and 58%; reduction in the number of IFN-γ secreting cells [2]: 30% and 49%
7 | CCCCCOc1ccc(-c2cc(-c3ccc(C(=O)N[C@H]4C[C@@H](O)[C@@H](O)NC(=O)[C@@H]5[C@@H](O)[C@@H](C)CN5C(=O)[C@H]([C@H](O)CC(N)=O)NC(=O)[C@H]([C@H](O)[C@@H](O)c5ccc(O)c(OS(=O)(=O)O)c5)NC(=O)[C@@H]5C[C@@H](O)CN5C(=O)[C@H]([C@@H](C)O)NC4=O)cc3)no2)cc1 [micafungin] (X1-[Orn(4R-OH,5R-OH)]T[Hyp][hTyr(3S-OH,4S-OH,3'-OSO3H)][Gln(3R-OH)][Pro(3S-OH,4S-Me)]; lactam 1-C) | persistently positive |  | 
